The target in assay [1] is T1, Lxrβ-LBD (Homo sapiens, UniProt P55055).
T1 construct: purchased Invitrogen
T1 sequence (P55055 222-460 limits assumed): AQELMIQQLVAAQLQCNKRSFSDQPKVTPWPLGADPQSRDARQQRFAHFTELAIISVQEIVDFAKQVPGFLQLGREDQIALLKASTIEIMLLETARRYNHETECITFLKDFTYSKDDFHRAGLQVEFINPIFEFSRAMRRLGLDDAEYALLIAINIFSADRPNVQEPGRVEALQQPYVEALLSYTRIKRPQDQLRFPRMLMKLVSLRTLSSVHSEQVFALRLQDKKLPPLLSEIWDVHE
Put plainly: LanthaScreen TR-FRET Lxrβ coactivator assay. It counts as binding. An excerpt: Lxrβ Ligand Binding Assay. For Lxrβ ligand binding activity measurement, the applicants used the LANTHASCREEN™ TR-FRET Lxrβ Coactivator Assay (Invitrogen). The assay uses a terbium (Tb)-labeled anti-GST antibody, a fluorescein-labeled coactivator peptide and the Lxrβ-LBD tagged with glutathione-S-transferase (GST). Binding of the agonist/ligand to Lxrβ-LBD causes a conformational change that result in an increase in the affinity of the Lxrβ for the coactivator peptide. The close proximity of the fluorescently labeled coactivator peptide to the Tb-labeled antibody causes an increase in the TR-FRET signal intensity. The TR-FRET ratio of 520/495 was calculated using a Victor multi label reader with an excitation wavelength of 340 nm and emission wavelengths of 520 nm and 495 nm. The activational capacity of potential ligands was tested in a […] polypropylene plate, following the manufacturer's protocol.
(In general: TR-FRET usually uses a lanthanide donor and a delayed reading to cut background.)

Assay [2] addresses T2, Lxrα (Homo sapiens, UniProt Q13133).
T2 construct: expressed in transfected cells; host or cells: SN4741 mouse neuronal cell line
T2 sequence (Q13133 1-447): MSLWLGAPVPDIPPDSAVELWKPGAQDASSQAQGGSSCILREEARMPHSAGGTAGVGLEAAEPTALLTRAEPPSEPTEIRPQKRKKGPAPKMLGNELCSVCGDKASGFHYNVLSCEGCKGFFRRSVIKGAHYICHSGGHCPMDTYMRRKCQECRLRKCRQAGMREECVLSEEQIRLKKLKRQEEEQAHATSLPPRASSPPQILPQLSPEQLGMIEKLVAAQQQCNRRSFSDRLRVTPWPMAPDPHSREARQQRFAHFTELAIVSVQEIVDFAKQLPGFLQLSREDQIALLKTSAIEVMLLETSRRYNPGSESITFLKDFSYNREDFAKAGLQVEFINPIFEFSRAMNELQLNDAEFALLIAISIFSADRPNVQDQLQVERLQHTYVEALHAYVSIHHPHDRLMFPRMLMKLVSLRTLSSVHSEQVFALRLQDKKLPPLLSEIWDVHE
Put plainly: Lxr-responsive luciferase reporter assay (Lxre + Lxrα) in SN4741 neural cells. It counts as cell-based, mouse. The note with it: 10 μM, 24 h. From the text: (§1) Luciferase Reporter Assay.
On the technique in general: Reporter assays use an easily measured gene product as a stand-in for the process of interest.

In assay [3] the test system is Abca1, Abcg1 and Srebf1 transcript levels. Put plainly: Quantitative PCR of Lxr target genes in SN4741 cells. It counts as cell-based, mouse. The note with it: SN4741 cells treated 3 h. The procedure:
Quantitative PCR. Total RNA was extracted from SN4741 cells and zebrafish treated with the compounds of interest using the RNeasy Mini Kit (Qiagen), 1 μg was treated with RQ1 RNase-free DNase (Promega) and reverse transcribed using Superscript II Reverse Transcriptase (Invitrogen) and random primers (Invitrogen) (RT+ reaction). Parallel reactions without reverse transcriptase enzyme were done as a control (RT− reaction), and Sybergreen real-time quantitative PCR assays were performed. Expression levels were obtained by normalization with the value of the housekeeping gene encoding actin obtained for every sample in parallel assays.

The target in assay [4] is T3, Lxrβ (Homo sapiens, UniProt P55055).
T3 construct: expressed in transfected cells; host or cells: SN4741 mouse neuronal cell line
T3 sequence (P55055 1-460): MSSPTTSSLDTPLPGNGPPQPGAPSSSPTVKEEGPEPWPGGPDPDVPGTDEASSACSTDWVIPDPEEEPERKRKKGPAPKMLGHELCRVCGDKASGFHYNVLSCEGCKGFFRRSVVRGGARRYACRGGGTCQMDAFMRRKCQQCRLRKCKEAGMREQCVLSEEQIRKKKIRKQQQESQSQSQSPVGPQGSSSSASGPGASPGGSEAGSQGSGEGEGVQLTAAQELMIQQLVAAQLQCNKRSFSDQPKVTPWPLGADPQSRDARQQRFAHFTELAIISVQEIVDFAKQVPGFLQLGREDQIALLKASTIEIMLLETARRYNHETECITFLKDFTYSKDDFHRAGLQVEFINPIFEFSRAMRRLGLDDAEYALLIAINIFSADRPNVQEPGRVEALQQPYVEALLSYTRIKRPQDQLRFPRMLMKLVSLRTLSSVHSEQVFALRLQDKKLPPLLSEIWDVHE
Put plainly: Lxr-responsive luciferase reporter assay (Lxre + Lxrβ) in SN4741 neural cells. It is filed as cell-based, mouse. The note with it: for Lxrβ activation, luciferase activity: SN4741 cells, 10 μM, 24 h; for Lxrβ activational capacity in combination with 22R-HC: acid 10 μM + 22R-HC 10 μM.
Text: as §1

For assay [5], the system named is Islet1+ oculomotor neurons. Put plainly: In utero injection into the cerebral aqueduct of E11.5 mice, analysis at E13.5. It counts as in vivo, mouse. From the text:
Animals for in-utero injections and tissue preparation. Female wild-type CD-1 mice (25-35 g; Charles River Breeding Laboratories) were housed, bred, and treated according to the guidelines of the European Communities Council (directive 86/609/EEC) and the Society for Neuroscience (www.sfr.org), and all experiments were approved by the local ethical committee. Ethical approval for CD-I mice experimentation was granted by Stockholm Norra Djurforsoksetisks Namnd number N1 54/06, N273/11 and N370/09. For embryo analyses, wild type CD-I mice were mated overnight, and noon of the day the plug was considered E0.5. Embryos were dissected out of the uterine horns in ice-cold PBS, fixed in 4% paraformaldehyde (PFA) for 4 h to overnight, cryoprotected in 15-30% sucrose, frozen in Tissue-Tek Optimum Cutting Temperature (OCT) compound (Sakura Fine-Tek) on dry ice, and stored at −80° C. until use. Serial coronal 14-μπι sections of the brain were obtained on a cryostat.
Immunohistochemical analysis of sections. Ten sets of 14 μπι serial coronal sections were cut on a cryostat. No. 1 and 6 sets were subjected to immunohistochemistry. Sections were pre-incubated for 1 h in blocking solution followed by incubation at 4° C. overnight with following primary antibodies: anti-TH (1:750, Pel-Freeze), anti-Islet-1 (1:100; Developmental Studies Hybridoma Bank), anti-cleaved caspase-3 (Aspl175) (1:100; Cell Signaling Technology). After washing, slides were incubated for 1-2 h at room temperature with the appropriate fluorophore-conjugated (Cy2-, Cy3- and Cy5-, 1:300, Jackson Laboratories; Alexa488-, 555-, and 647-, 1:1000, Invitrogen) secondary antibodies. Confocal pictures were taken with a Zeiss LSM5 Exciter or LSM700 microscope.
In utero intraventricular injections. E11.5 pregnant females were deeply anesthetized using Isofluorane (ISOFLO®, Abbott Labs) and the uterine horns were accessed through an abdominal incision. 1 μL of the different cholestenoic acids studied (5 mM) or vehicle solution (isopropanol, 50% v/v) was injected into the cerebral aqueduct. The uterine horns were replaced into the abdominal cavity, which was then closed with sutures. Embryos were analyzed 48 h later.

Where [6] appears, read: 1 μL of 5 mM injected at E11.5, analysed at E13.5.

The structures appear in SMILES notation.

With `CC(CCC[C@@H](C)[C@H]1CC[C@H]2[C@@H]3CC=C4C[C@@H](O)CC[C@]4(C)[C@H]3CC[C@]12C)C(=O)O` (stereo partly drawn) [3β-HCA, 3β-hydroxycholest-5-en-26-oic acid], the “Competitor concentration with significant difference (p<0.05) from 10 μM 3β,7α-diHCA alone in TR-FRET Lxrβ coactivator assay” value in assay [1] (added to 10 μM 3β,7α-diHCA) is at least 5 µM. Also, the “Competition with 3β,7α-diHCA in TR-FRET Lxrβ coactivator assay” value in assay [1] (increasing concentrations with 3β,7α-diHCA at its most potent concentration) is listed as “the effect of 3β,7α-diHCA was reduced to that of the latter acids”. The “Lxrα activation, luciferase activity” value in assay [2] is “activates Lxr”. In addition, the “Abca1, Abcg1 and Srebf1 transcript levels” value in assay [3] is reported as “induced transcription, but to a lesser extent”. Moreover, in assay [4], the “Lxrβ activation, luciferase activity” value is “activates Lxr” and the “Lxrβ activational capacity in combination with 22R-HC” value was “No additive effect was observed”. In addition, the “Number of Islet+ oculomotor neurons in vivo” value in assay [5] (setting [6]) is given as “the number of Islet+ oculomotor neurons was reduced”.

For the compound `CC(CCC[C@@H](C)[C@H]1CC[C@H]2[C@@H]3[C@H](O)C=C4C[C@@H](O)CC[C@]4(C)[C@H]3CC[C@]12C)C(=O)O` (stereo partly drawn) [3β,7α-diHCA, 3β,7α-dihydroxycholest-5-en-26-oic acid], the “TR-FRET induction (coactivator recruitment to Lxrβ-LBD)” value in assay [1] (dose response) was “induced FRET in a dose dependent manner to a higher degree than the other acids”. Besides, the “Lxrα activation, luciferase activity” value in assay [2] is “have the ability to activate both Lxrs”. Besides, the “Abca1, Abcg1 and Srebf1 transcript levels” value in assay [3] is on record as “increased transcripts levels to a similar degree as 22R-HC”. Further, in assay [4], the “Lxrβ activation, luciferase activity” value is “have the ability to activate both Lxrs” and the “Lxrβ activational capacity in combination with 22R-HC” value is reported as “No additive effect was observed”. Besides, in assay [5] (setting [6]), the “Number of Islet+ oculomotor neurons in vivo” value is “an increase in the number of Islet+ oculomotor neurons” and the “Number of TH+ neurons in vivo” value is recorded as “not of TH+ neurons”. Besides, in assay [5] (co-injected with 3β-HCA), the “Effect of co-injection on the 3β-HCA-induced reduction of Islet+ oculomotor neurons” value was “this effect was eliminated by co-injection of 3β,7α-diHCA”.

Source of the values: US20230416299A1, “COMPOUND AND METHOD FOR THE TREATMENT AND DIAGNOSIS OF NEURODEGENERATIVE CONDITIONS” (Swansea University, priority 2013, published 2023).
